Measured values taken from patent publication US9775902B2, “Compounds and methods for treatment of stroke” (FIBROGEN, INC, priority 2006, dated 2017).

Legend:
erythropoietin (EPO) [1] = experiment: EPO expression in Kelly neuroblastoma cells; type: cell-based; settings: for EPO: conditioned media after overnight incubation
Method: (§1) The effect of compounds of the present invention on expression of cytoprotective and neuroprotective factors in neuroblastoma cells was evaluated as follows. Kelly neuroblastoma cells (see, e.g., DSMZ, cat# ACC-355, Braunschweig Germany) were treated with various compounds of the present invention or 1% DMSO (negative control). Following an overnight incubation, the conditioned media was collected from cell cultures and analyzed for erythropoietin (EPO) and vascular endothelial growth factor (VEGF) expression using a QUANTIKINE immunoassay (R&D Systems, Inc., Minneapolis Minn.) according to the manufacturer's instructions.

erythropoietin (EPO) [2] = experiment: EPO expression in Hep3B cells (QUANTIKINE immunoassay of conditioned media); type: cell-based, Human; settings: for Fold Increase Over Control: EPO, vs 1% DMSO control; for EPO: conditioned media after overnight incubation with compound
Method: The effect of compounds of the present invention on expression of cytoprotective and neuroprotective factors in cells was evaluated as follows. Human cells derived from hepatocarcinoma (Hep3B) tissue (see, e.g., American Type Culture Collection, Manassas Va.) were seeded into 35 mm culture dishes and grown at 37° C., 20% O2, 5% CO2 in Minimal Essential Medium (MEM), Earle's balanced salt solution (Mediatech Inc., Herndon Va.), 2 mM L-glutamine, 0.1 mM non-essential amino acids, 1 mM sodium pyruvate, and 10% FBS. When cell layers reached confluence, the media was replaced with OPTI-MEM media (Invitrogen Life Technologies, Carlsbad Calif.) and cell layers were incubated for approximately 24 hours in 20% O2, 5% CO2 at 37° C. Various compounds of the present invention or 1% DMSO (negative control) were then added to existing media and incubation was continued overnight.
Following incubation, the conditioned media was collected from cell cultures and analyzed for erythropoietin (EPO) expression using a QUANTIKINE immunoassay (R&D Systems, Inc., Minneapolis Minn.) according to the manufacturer's instructions.

[3] = test system: vascular endothelial growth factor (VEGF); experiment: VEGF expression in Kelly neuroblastoma cells; type: cell-based; settings: for VEGF: conditioned media after overnight incubation
Method: as §1

erythropoietin = experiment: Plasma EPO in mice after intravenous injection; type: in vivo, Swiss Webster mice; settings: mouse plasma, 20 mg/kg i.v., four hours after injection; for fold induction at 20 mg/kg: iv, 4 h, read-out: EPO Fold Increase; for EPO: mouse EPO ELISA kit (**)
Method: (§2) The effect of compounds of the present invention on expression of cytoprotective and neuroprotective factors in vivo was evaluated as follows. In one series of experiments, male Swiss Webster mice (29-34 g) were administered various compounds of the present invention via intravenous injection into the caudal tail vein. Animals treated by intravenous injection received a 6 ml/kg volume of either 5% Dextrose with an equimolar amount of NaOH or Meglumine (vehicle control) or 20 mg/kg of a compound of the present invention in 5% dextrose with an equimolar amount of NaOH or Meglumine. Four hours after injection, the animals were anesthetized and exsanguinated. Plasma samples were collected in EDTA and heparin coated microtainer tubes. Plasma samples were assayed for erythropoietin and VEGF using commercially-available ELISA kits purchased from R & D Systems (Minneapolis Minn.).

VEGF = experiment: Plasma VEGF in mice after intravenous injection; type: in vivo, Swiss Webster mice; settings: mouse plasma, 20 mg/kg i.v., four hours after injection; for fold induction at 20 mg/kg: iv, 4 h, read-out: VEGF Fold Increase
Method: as §2

SMILES: CCc1c(O)c(C(=O)NCC(=O)O)nc2cc(Cl)ccc12 [Compound AT, [(7-Chloro-4-ethyl-3-hydroxy-quinoline-2-carbonyl)-amino]-acetic acid]
- EPO Fold Increase (erythropoietin (EPO) [1]): 31.08
- EPO (erythropoietin (EPO) [1]): 587.5 mIU/ml
- Fold Increase Over Control (erythropoietin (EPO) [2]): 30.0
- EPO (erythropoietin (EPO) [2]): 81.0 mIU/ml
- VEGF Fold Increase [3]: 8.3
- VEGF [3]: 11350 pg/mL
- fold induction at 20 mg/kg (erythropoietin): 3.84
- EPO (erythropoietin): 169 pg/mL
- fold induction at 20 mg/kg (VEGF): 1.02
- VEGF (VEGF): 43 pg/mL

SMILES: N#Cc1nc(C(=O)NCC(=O)O)c(O)c2ccc(Cc3ccccc3)cc12 [Compound AR, [(7-Benzyl-1-cyano-4-hydroxy-isoquinoline-3-carbonyl)-amino]-acetic acid]
- EPO Fold Increase (erythropoietin (EPO) [1]): 32.17
- EPO (erythropoietin (EPO) [1]): 842.9 mIU/ml
- Fold Increase Over Control (erythropoietin (EPO) [2]): 21.8
- EPO (erythropoietin (EPO) [2]): 82.7 mIU/ml
- VEGF Fold Increase [3]: 10.8
- VEGF [3]: 14745 pg/mL
- fold induction at 20 mg/kg (erythropoietin): 22.8
- EPO (erythropoietin): 11000 pg/mL
- fold induction at 20 mg/kg (VEGF): 0.83
- VEGF (VEGF): 29 pg/mL

SMILES: O=C(O)CNC(=O)c1nc2cc(Cl)ccc2c(I)c1O [Compound T, [(7-Chloro-3-hydroxy-4-iodo-quinoline-2-carbonyl)-amino]acetic acid]
- EPO Fold Increase (erythropoietin (EPO) [1]): 15.83
- EPO (erythropoietin (EPO) [1]): 299.1 mIU/ml
- Fold Increase Over Control (erythropoietin (EPO) [2]): 49.3
- EPO (erythropoietin (EPO) [2]): 100.7 mIU/ml
- VEGF Fold Increase [3]: 5.6
- VEGF [3]: 8159 pg/mL
- fold induction at 20 mg/kg (erythropoietin): 4.65
- EPO (erythropoietin): 498 pg/mL
- fold induction at 20 mg/kg (VEGF): 1.24
- VEGF (VEGF): 31 pg/mL

SMILES: COc1ccc(Oc2ccc3c(Cl)nc(C(=O)NCC(=O)O)c(O)c3c2)cc1 [Compound H, {[1-Chloro-4-hydroxy-6-(4-methoxy-phenoxy)-isoquinoline-3-carbonyl]-amino}-acetic acid]
- Fold Increase Over Control (erythropoietin (EPO) [2]): 5.4
- EPO (erythropoietin (EPO) [2]): 84.0 mIU/ml

SMILES: O=C(O)CNC(=O)c1ncc2cc(Oc3ccccc3)sc2c1O [Compound AG, [(7-Hydroxy-2-phenoxy-thieno[3,2-c]pyridine-6-carbonyl)-amino]-acetic acid]
- EPO Fold Increase (erythropoietin (EPO) [1]): 14.44
- EPO (erythropoietin (EPO) [1]): 273 mIU/ml
- Fold Increase Over Control (erythropoietin (EPO) [2]): 8.5
- EPO (erythropoietin (EPO) [2]): 27.3 mIU/ml
- VEGF Fold Increase [3]: 5.9
- VEGF [3]: 8670 pg/mL
- fold induction at 20 mg/kg (erythropoietin): 1.91
- EPO (erythropoietin): 303 pg/mL
- fold induction at 20 mg/kg (VEGF): 1.76
- VEGF (VEGF): 51 pg/mL

SMILES: O=C(O)CNC(=O)c1nc(Cl)c2ccccc2c1O [Compound A, [(1-Chloro-4-hydroxy-isoquinoline-3-carbonyl)-amino]-acetic acid]
- Fold Increase Over Control (erythropoietin (EPO) [2]): 13.6
- EPO (erythropoietin (EPO) [2]): 18.3 mIU/ml

SMILES: N#Cc1nc(C(=O)NCC(=O)O)c(O)c2ccc(Cl)cc12 [Compound S, [(7-Chloro-1-cyano-4-hydroxy-isoquinoline-3-carbonyl)-amino]-acetic acid]
- EPO Fold Increase (erythropoietin (EPO) [1]): 2.89
- EPO (erythropoietin (EPO) [1]): 40.4 mIU/ml
- Fold Increase Over Control (erythropoietin (EPO) [2]): 10.1
- EPO (erythropoietin (EPO) [2]): 12.5 mIU/ml
- VEGF Fold Increase [3]: 1.9
- VEGF [3]: 725 pg/mL
- fold induction at 20 mg/kg (erythropoietin): 40.8
- EPO (erythropoietin): 460.6 pg/mL
- fold induction at 20 mg/kg (VEGF): 0.68
- VEGF (VEGF): 15 pg/mL

SMILES: N#Cc1nc(C(=O)NCC(=O)O)c(O)c2sccc12 [Compound AH, [(4-Cyano-7-hydroxy-thieno[3,2-c]pyridine-6-carbonyl)-amino]-acetic acid]
- EPO Fold Increase (erythropoietin (EPO) [1]): 11.95
- EPO (erythropoietin (EPO) [1]): 225.8 mIU/ml
- Fold Increase Over Control (erythropoietin (EPO) [2]): 7.1
- EPO (erythropoietin (EPO) [2]): 13.4 mIU/ml
- VEGF Fold Increase [3]: 4.5
- VEGF [3]: 6590 pg/mL
- fold induction at 20 mg/kg (erythropoietin): 11.6
- EPO (erythropoietin): 1242 pg/mL
- fold induction at 20 mg/kg (VEGF): 1.76
- VEGF (VEGF): 44 pg/mL

SMILES: O=C(O)CNC(=O)c1ncc2c(-c3ccc(F)cc3)c(-c3ccc(F)cc3)sc2c1O [Compound AJ, {[2,3-Bis-(4-fluoro-phenyl)-7-hydroxy-thieno[3,2-c]pyridine-6-carbonyl]-amino}-acetic acid]
- Fold Increase Over Control (erythropoietin (EPO) [2]): 42.8
- EPO (erythropoietin (EPO) [2]): 62.9 mIU/ml
- VEGF Fold Increase [3]: 3.0
- VEGF [3]: 4102 pg/mL
- fold induction at 20 mg/kg (erythropoietin): 2.53
- EPO (erythropoietin): 271 pg/mL
- fold induction at 20 mg/kg (VEGF): 1.16
- VEGF (VEGF): 29 pg/mL

SMILES: O=C(O)CNC(=O)c1ncc2cc(SC3CCCCC3)ccc2c1O [Compound V, [(7-Cyclohexylsulfanyl-4-hydroxy-isoquinoline-3-carbonyl)-amino]-acetic acid]
- EPO Fold Increase (erythropoietin (EPO) [1]): 3.9
- EPO (erythropoietin (EPO) [1]): 24.2 mIU/ml
- VEGF Fold Increase [3]: 13.5
- VEGF [3]: 2132.0 pg/mL

SMILES: Cc1nc(C(=O)NCC(=O)O)c(OCc2ccccc2)c2ccc(Oc3ccccc3)cc12 [Compound K, [(4-Benzyloxy-1-methyl-7-phenoxy-isoquinoline-3-carbonyl)-amino]-acetic acid]
- Fold Increase Over Control (erythropoietin (EPO) [2]): 1.8
- EPO (erythropoietin (EPO) [2]): 57.4 mIU/ml

SMILES: O=C(O)CNC(=O)c1nc2ccc(Oc3ccccc3)cc2cc1O [Compound C, [(3-Hydroxy-6-phenoxy-quinoline-2-carbonyl)-amino]-acetic acid]
- EPO Fold Increase (erythropoietin (EPO) [1]): 3.5
- EPO (erythropoietin (EPO) [1]): 21.8 mIU/ml
- Fold Increase Over Control (erythropoietin (EPO) [2]): 2.2
- EPO (erythropoietin (EPO) [2]): 241.4 mIU/ml
- VEGF Fold Increase [3]: 9.1
- VEGF [3]: 1445.7 pg/mL

SMILES: Cc1nc(C(=O)NCC(=O)O)c(O)c2ccc(Oc3ccccc3)cc12 [Compound J, [(4-Hydroxy-1-methyl-7-phenoxy-isoquinoline-3-carbonyl)-amino]-acetic acid]
- EPO (erythropoietin (EPO) [2]): 120.0 mIU/ml

SMILES: O=C(O)CNC(=O)c1nc2cc(Cl)ccc2cc1O [Compound B, [(7-Chloro-3-hydroxy-quinoline-2-carbonyl)-amino]-acetic acid]
- Fold Increase Over Control (erythropoietin (EPO) [2]): 9.8
- EPO (erythropoietin (EPO) [2]): 14.2 mIU/ml

SMILES: N#Cc1nc(C(=O)NCC(=O)O)c(O)c2cccc(Oc3ccccc3)c12 [Compound W, [(1-Cyano-4-hydroxy-8-phenoxy-isoquinoline-3-carbonyl)-amino]-acetic acid]
- EPO Fold Increase (erythropoietin (EPO) [1]): 11.35
- EPO (erythropoietin (EPO) [1]): 214.6 mIU/ml
- VEGF Fold Increase [3]: 5.0
- VEGF [3]: 1846 pg/mL
- fold induction at 20 mg/kg (erythropoietin): 45.6
- EPO (erythropoietin): 725.4 pg/mL
- fold induction at 20 mg/kg (VEGF): 1.38
- VEGF (VEGF): 40 pg/mL

SMILES: O=C(O)CNC(=O)c1nc2cc(Cl)ccc2c(-c2cccc(C(F)(F)F)c2)c1O [Compound AU, {[7-Chloro-3-hydroxy-4-(3-trifluoromethyl-phenyl)-quinoline-2-carbonyl]-amino}-acetic acid]
- EPO Fold Increase (erythropoietin (EPO) [1]): 4.16
- EPO (erythropoietin (EPO) [1]): 109.1 mIU/ml
- Fold Increase Over Control (erythropoietin (EPO) [2]): 7.1
- EPO (erythropoietin (EPO) [2]): 19.2 mIU/ml
- VEGF Fold Increase [3]: 5.1
- VEGF [3]: 6877 pg/mL

SMILES: Cc1cccc2c(Cl)nc(C(=O)NCC(=O)O)c(O)c12 [Compound D, [(1-Chloro-4-hydroxy-5-methyl-isoquinoline-3-carbonyl)-amino]-acetic acid]
- Fold Increase Over Control (erythropoietin (EPO) [2]): 2.7
- EPO (erythropoietin (EPO) [2]): 205.7 mIU/ml

SMILES: O=C(O)CNC(=O)c1nc(Sc2ccc(Cl)cc2)c2ccccc2c1O [Compound U, {[1-(4-Chloro-phenylsulfanyl)-4-hydroxy-isoquinoline-3-carbonyl]-amino}-acetic acid]
- EPO Fold Increase (erythropoietin (EPO) [1]): 1.4
- EPO (erythropoietin (EPO) [1]): 8.9 mIU/ml
- VEGF Fold Increase [3]: 9.7
- VEGF [3]: 1526.0 pg/mL
